Results: PMC11672637, “7-O-Carboxylic Acid-Substituted 3-O-Alkyl Difluoroquercetin; An Aztreonam-Potentiating Agent Against Carbapenemase-Producing Pseudomonas aeruginosa Through Simultaneous Inhibition of Metallo-β-Lactamase and Efflux Pump” (Antibiotics, 2024)
Converted amounts (≈) assume the structure as drawn. Like-named read-outs stand apart in the source and are kept apart here.

Tests used:
Type in all cases: cell-based, P. aeruginosa
PA-025, blaNDM = assay: MIC / checkerboard with ATM; settings: for MIC: Pseudomonas aeruginosa, read-out: MIC of ATM with 5, PA-025
All CPPA (n = 26) = assay: MIC distribution over clinical isolates; settings: for inhibition at 1 µg/mL / inhibition at 2 µg/mL / inhibition at 4 µg/mL / inhibition at 8 µg/mL / inhibition at 16 µg/mL / inhibition at 32 µg/mL / inhibition at 64 µg/mL / MIC50 / MIC90: Pseudomonas aeruginosa; for inhibition at 1 µg/mL: read-out: Cumulative % inhibition by ATM, 5 at 1 mg/L; for inhibition at 2 µg/mL: read-out: Cumulative % inhibition by ATM, 5 at 2 mg/L; for inhibition at 4 µg/mL: read-out: Cumulative % inhibition by ATM, 5 at 4 mg/L; for inhibition at 8 µg/mL: read-out: Cumulative % inhibition by ATM, 5 at 8 mg/L; for inhibition at 16 µg/mL: read-out: Cumulative % inhibition by ATM, 5 at 16 mg/L; for inhibition at 32 µg/mL: read-out: Cumulative % inhibition by ATM, 5 at 32 mg/L; for inhibition at 64 µg/mL: read-out: Cumulative % inhibition by ATM, 5 at 64 mg/L
PA-039, blaNDM = assay: MIC / checkerboard with ATM; settings: for MIC: Pseudomonas aeruginosa, read-out: MIC of ATM with 5, PA-039
PA-027, blaIMP = assay: MIC / checkerboard with ATM; settings: for MIC: Pseudomonas aeruginosa, read-out: MIC of ATM with 5, PA-027

CC(C)(C)CCOc1c(-c2ccc(F)c(F)c2)oc2cc(OCC(=O)O)cc(O)c2c1=O [Compound 5, 2-((2-(3,4-Difluorophenyl)-3-(3,3-dimethylbutoxy)-5-hydroxy-4-oxo-4H-chromen-7-yl)oxy)acetic Acid]
Concentrations of ATM and 5 at lowest FICI (ATM/5) (PA-025, blaNDM; PA-025): 4/16 | Lowest FICI (ATM/5) (PA-025, blaNDM; PA-025): 0.28 | Minimum concentration of 5 to make sensitive to ATM (PA-025, blaNDM; PA-025): 4 mg/L | Susceptibility to ATM (PA-025, blaNDM; PA-025, ATM/5): S (S (sensitive, MIC ≤ 8 mg/L)) | FD (fold decrease in MIC of ATM with 5) (PA-025, blaNDM; PA-025, lowest-FICI combination): 4 | MIC (PA-025, blaNDM; 5 at 1 mg/L): 16 µg/mL | MIC (PA-025, blaNDM; 5 at 2 mg/L): 16 µg/mL | MIC (PA-025, blaNDM; 5 at 4 mg/L): 8 µg/mL | MIC (PA-025, blaNDM; 5 at 8 mg/L): 8 µg/mL | MIC (PA-025, blaNDM; 5 at 16 mg/L): 4 µg/mL | MIC (PA-025, blaNDM; 5 at 32 mg/L): 2 µg/mL | MIC (PA-025, blaNDM; 5 at 64 mg/L): 2 µg/mL | Clinical strains sensitized to ATM (MIC ≤ 8 mg/L) by combination with 5 (All CPPA (n = 26)): 25 out of 26 | CPPA isolates in which ATM/5 combination showed synergistic effects (All CPPA (n = 26); 22 out of 26 isolates): 85% | inhibition at 1 µg/mL (All CPPA (n = 26); ATM 0.5 mg/L): 0% | inhibition at 1 µg/mL (All CPPA (n = 26); ATM 1 mg/L): 4% | inhibition at 1 µg/mL (All CPPA (n = 26); ATM 2 mg/L): 19% | inhibition at 1 µg/mL (All CPPA (n = 26); ATM 4 mg/L): 35% | inhibition at 1 µg/mL (All CPPA (n = 26); ATM 8 mg/L): 46% | inhibition at 1 µg/mL (All CPPA (n = 26); ATM 16 mg/L): 81% | inhibition at 1 µg/mL (All CPPA (n = 26); ATM 32 mg/L): 100% | inhibition at 1 µg/mL (All CPPA (n = 26); ATM 64 mg/L): 100% | inhibition at 2 µg/mL (All CPPA (n = 26); ATM 0.5 mg/L): 4% | inhibition at 2 µg/mL (All CPPA (n = 26); ATM 1 mg/L): 4% | inhibition at 2 µg/mL (All CPPA (n = 26); ATM 2 mg/L): 23% | inhibition at 2 µg/mL (All CPPA (n = 26); ATM 4 mg/L): 38% | inhibition at 2 µg/mL (All CPPA (n = 26); ATM 8 mg/L): 46% | inhibition at 2 µg/mL (All CPPA (n = 26); ATM 16 mg/L): 92% | inhibition at 2 µg/mL (All CPPA (n = 26); ATM 32 mg/L): 100% | inhibition at 2 µg/mL (All CPPA (n = 26); ATM 64 mg/L): 100% | inhibition at 4 µg/mL (All CPPA (n = 26); ATM 0.5 mg/L): 4% | inhibition at 4 µg/mL (All CPPA (n = 26); ATM 1 mg/L): 8% | inhibition at 4 µg/mL (All CPPA (n = 26); ATM 2 mg/L): 31% | inhibition at 4 µg/mL (All CPPA (n = 26); ATM 4 mg/L): 46% | inhibition at 4 µg/mL (All CPPA (n = 26); ATM 8 mg/L): 81% | inhibition at 4 µg/mL (All CPPA (n = 26); ATM 16 mg/L): 100% | inhibition at 4 µg/mL (All CPPA (n = 26); ATM 32 mg/L): 100% | inhibition at 4 µg/mL (All CPPA (n = 26); ATM 64 mg/L): 100% | inhibition at 8 µg/mL (All CPPA (n = 26); ATM 0.5 mg/L): 4% | inhibition at 8 µg/mL (All CPPA (n = 26); ATM 1 mg/L): 19% | inhibition at 8 µg/mL (All CPPA (n = 26); ATM 2 mg/L): 38% | inhibition at 8 µg/mL (All CPPA (n = 26); ATM 4 mg/L): 69% | inhibition at 8 µg/mL (All CPPA (n = 26); ATM 8 mg/L): 88% | inhibition at 8 µg/mL (All CPPA (n = 26); ATM 16 mg/L): 100% | inhibition at 8 µg/mL (All CPPA (n = 26); ATM 32 mg/L): 100% | inhibition at 8 µg/mL (All CPPA (n = 26); ATM 64 mg/L): 100% | inhibition at 16 µg/mL (All CPPA (n = 26); ATM 0.5 mg/L): 4% | inhibition at 16 µg/mL (All CPPA (n = 26); ATM 1 mg/L): 27% | inhibition at 16 µg/mL (All CPPA (n = 26); ATM 2 mg/L): 50% | inhibition at 16 µg/mL (All CPPA (n = 26); ATM 4 mg/L): 81% | inhibition at 16 µg/mL (All CPPA (n = 26); ATM 8 mg/L): 96% | inhibition at 16 µg/mL (All CPPA (n = 26); ATM 16 mg/L): 100% | inhibition at 16 µg/mL (All CPPA (n = 26); ATM 32 mg/L): 100% | inhibition at 16 µg/mL (All CPPA (n = 26); ATM 64 mg/L): 100% | inhibition at 32 µg/mL (All CPPA (n = 26); ATM 0.5 mg/L): 4% | inhibition at 32 µg/mL (All CPPA (n = 26); ATM 1 mg/L): 35% | inhibition at 32 µg/mL (All CPPA (n = 26); ATM 2 mg/L): 54% | inhibition at 32 µg/mL (All CPPA (n = 26); ATM 4 mg/L): 88% | inhibition at 32 µg/mL (All CPPA (n = 26); ATM 8 mg/L): 96% | inhibition at 32 µg/mL (All CPPA (n = 26); ATM 16 mg/L): 100% | inhibition at 32 µg/mL (All CPPA (n = 26); ATM 32 mg/L): 100% | inhibition at 32 µg/mL (All CPPA (n = 26); ATM 64 mg/L): 100% | inhibition at 64 µg/mL (All CPPA (n = 26); ATM 0.5 mg/L): 4% | inhibition at 64 µg/mL (All CPPA (n = 26); ATM 1 mg/L): 38% | inhibition at 64 µg/mL (All CPPA (n = 26); ATM 2 mg/L): 58% | inhibition at 64 µg/mL (All CPPA (n = 26); ATM 4 mg/L): 92% | inhibition at 64 µg/mL (All CPPA (n = 26); ATM 8 mg/L): 96% | inhibition at 64 µg/mL (All CPPA (n = 26); ATM 16 mg/L): 100% | inhibition at 64 µg/mL (All CPPA (n = 26); ATM 32 mg/L): 100% | inhibition at 64 µg/mL (All CPPA (n = 26); ATM 64 mg/L): 100% | MIC50 (All CPPA (n = 26); read-out: MIC50 of ATM, 5 at 1 mg/L): 16 µg/mL (≈ 35.7 µM) | MIC50 (All CPPA (n = 26); read-out: MIC50 of ATM, 5 at 2 mg/L): 16 µg/mL (≈ 35.7 µM) | MIC50 (All CPPA (n = 26); read-out: MIC50 of ATM, 5 at 4 mg/L): 8 µg/mL (≈ 17.8 µM) | MIC50 (All CPPA (n = 26); read-out: MIC50 of ATM, 5 at 8 mg/L): 4 µg/mL (≈ 8.92 µM) | MIC50 (All CPPA (n = 26); read-out: MIC50 of ATM, 5 at 16 mg/L): 4 µg/mL (≈ 8.92 µM) | MIC50 (All CPPA (n = 26); read-out: MIC50 of ATM, 5 at 32 mg/L): 2 µg/mL (≈ 4.46 µM) | MIC50 (All CPPA (n = 26); read-out: MIC50 of ATM, 5 at 64 mg/L): 2 µg/mL (≈ 4.46 µM) | MIC90 (All CPPA (n = 26); read-out: MIC90 of ATM, 5 at 1 mg/L): 32 µg/mL (≈ 71.4 µM) | MIC90 (All CPPA (n = 26); read-out: MIC90 of ATM, 5 at 2 mg/L): 32 µg/mL (≈ 71.4 µM) | MIC90 (All CPPA (n = 26); read-out: MIC90 of ATM, 5 at 4 mg/L): 16 µg/mL (≈ 35.7 µM) | MIC90 (All CPPA (n = 26); read-out: MIC90 of ATM, 5 at 8 mg/L): 16 µg/mL (≈ 35.7 µM) | MIC90 (All CPPA (n = 26); read-out: MIC90 of ATM, 5 at 16 mg/L): 8 µg/mL (≈ 17.8 µM) | MIC90 (All CPPA (n = 26); read-out: MIC90 of ATM, 5 at 32 mg/L): 8 µg/mL (≈ 17.8 µM) | MIC90 (All CPPA (n = 26); read-out: MIC90 of ATM, 5 at 64 mg/L): 8 µg/mL (≈ 17.8 µM) | Activity (FICI class) (PA-039, blaNDM; PA-039): S (S (Synergy, FICI ≤ 0.5)) | Concentrations of ATM and 5 at lowest FICI (ATM/5) (PA-039, blaNDM; PA-039): 4/8 | Lowest FICI (ATM/5) (PA-039, blaNDM; PA-039): 0.27 | Minimum concentration of 5 to make sensitive to ATM (PA-039, blaNDM; PA-039): 4 mg/L | Susceptibility to ATM (PA-039, blaNDM; PA-039, ATM/5): S (S (sensitive, MIC ≤ 8 mg/L)) | FD (fold decrease in MIC of ATM with 5) (PA-039, blaNDM; PA-039, lowest-FICI combination): 4 | MIC (PA-039, blaNDM; 5 at 1 mg/L): 16 µg/mL | MIC (PA-039, blaNDM; 5 at 2 mg/L): 16 µg/mL | MIC (PA-039, blaNDM; 5 at 4 mg/L): 8 µg/mL | MIC (PA-039, blaNDM; 5 at 8 mg/L): 4 µg/mL | MIC (PA-039, blaNDM; 5 at 16 mg/L): 4 µg/mL | MIC (PA-039, blaNDM; 5 at 32 mg/L): 4 µg/mL | MIC (PA-039, blaNDM; 5 at 64 mg/L): 4 µg/mL | Activity (FICI class) (PA-027, blaIMP; PA-027): S (S (Synergy, FICI ≤ 0.5)) | Concentrations of ATM and 5 at lowest FICI (ATM/5) (PA-027, blaIMP; PA-027): 8/4 | Lowest FICI (ATM/5) (PA-027, blaIMP; PA-027): 0.26 | Minimum concentration of 5 to make sensitive to ATM (PA-027, blaIMP; PA-027): 4 mg/L | Susceptibility to ATM (PA-027, blaIMP; PA-027, ATM/5): S (S (sensitive, MIC ≤ 8 mg/L)) | FD (fold decrease in MIC of ATM with 5) (PA-027, blaIMP; PA-027, lowest-FICI combination): 4 | MIC (PA-027, blaIMP; 5 at 1 mg/L): 32 µg/mL | MIC (PA-027, blaIMP; 5 at 2 mg/L): 16 µg/mL | MIC (PA-027, blaIMP; 5 at 4 mg/L): 8 µg/mL | MIC (PA-027, blaIMP; 5 at 8 mg/L): 4 µg/mL | MIC (PA-027, blaIMP; 5 at 16 mg/L): 2 µg/mL | MIC (PA-027, blaIMP; 5 at 32 mg/L): 2 µg/mL | MIC (PA-027, blaIMP; 5 at 64 mg/L): 2 µg/mL
